What all share (format): cell-based
A short description of data set [1]: Cytotoxicity on uninfected MT-4 cells, MTT method. The conditions noted are these: human, five days. The procedure:
(§1) Anti-HIV activity was measured from suppression of cytopathic effect caused by HIV infection. The HIV infected MT-4 cell (2.5×10^4 cells/well, degree of multiple infection: 0.01) was added to 96 well titer plate immediately after infection. At the same time, K97-0003 peptide of various concentration was also added to the plate. In order to examine cytopathic effect of K97-0003 peptide on MT-4 cell, cells uninfected by HIV was incubated with K97-0003 peptide of various concentrations in the same manner. After five days of incubation at 37° C. in a CO2 incubator, the number of cell survived was measured by MTT method.
(2) CC50: It is the concentration of K97-0003 peptide that causes cytotoxicity to 50% of cells, and is the parameter of cytotoxic effect of the peptide.

For data set [2], the system named is syncytium formation by fusion of HeLa/CD4/LTR cells and HeLa135/env (T-tropic HIV-1)/Tat cells. The experiment in a line: cells. The conditions noted are these: Human immunodeficiency virus 1, HeLa, read-out: IC50 of syncytium formation ability. The procedure:
50 μl of HeLa/CD4 /LTR cell suspension prepared to 1.6×10^5 cells/ml was inoculated into every each well of 96 well plate (IWAKI MICROPLATE 96well), and 10 μl of the sample, diluted in a series of concentration with phosphate buffer physiological saline, was added to every each well. Then, 50 μl of HeLa135/env(envelope glycoprotein: originated from T-tropic HIV-1)/Tat cell suspension prepared to 1.6×10^5 cells/ml was dispensed to every well, and incubated in an incubator at 37° C. under 5% CO2 air current for 24 hours. After removal of the culture fluid from each well, 20 μl of cell lysis solution was added to every each well, and the plate was left at the room temperature for about 10 minutes.
Continuously, 100 μl of chromogenic substrate solution (Z-buffer: 80 μl+4 mg/ml o-nitrophenyl-β-D-glactopyranoside:20 μl) was added to each well, and reacted in the incubator at 37° C. […] After 80 minutes, 25 μl of reaction stop solution (2M Na2CO3) was added to it, and the absorbance at 405 nm was measured using colorimeter (Organ ON SystemMicrowell System Reader 510). Syncytium formation ability was calculated from the obtained absorbance by the following formula.
Syncytium formation ability=the absorbance of the well with sample addition/absorbance of control×100

The next data set concerns HIV infected MT-4 cell. Put plainly: Anti-HIV activity by suppression of cytopathic effect, MTT method. The settings on record: Human immunodeficiency virus 1, MT4, 120 h, read-out: BC50. The procedure:
as §1
(1) EC50: It is the concentration of K97-0003 peptide which inhibits 50% of the cytotoxicity by HIV infection, and is the parameter of anti-HIV activity of the peptide.
In general terms: Damage to the host cells serves as the signal in cytopathic effect assays.

pEC50: −log10 of the molar value. In brackets after ≈: the same amount, converted by molar mass. Some results are limits rather than exact numbers.

As a reminder, the CC50 is the concentration giving 50% cytotoxicity. A low value points to harm at low concentration. The term IC50 denotes the midpoint of a concentration-inhibition curve.

Turning to `CN1C(=O)[C@@H](c2cc(Cl)c(O)c(Cl)c2)NC(=O)[C@@H]2NC(=O)[C@@H](c3cc(Cl)c(O)c(Cl)c3)NC(=O)[C@H](NC(=O)C(=O)c3cc(Cl)c(O)c(Cl)c3)Cc3c[nH]c4c(cccc34)-c3cc2cc(c3O)Oc2ccc(cc2)C[C@H]1C(=O)N[C@@H](C(=O)O)c1ccc(O)cc1` [Chloropeptine, chloropeptin, reference compound], the CC50 at 5 days in data set [1] was above 600000 nM. In data set [2], the IC50 was 1.7 µg/mL (≈ 1.28 µM). Also, in the data set on HIV infected MT-4 cell, the pEC50 was 5.80.

(Values after US6482412B1, “Polypeptide having human HIV inhibitory activity, a gene encoding the polypeptide, a method to produce the polypeptide” (Gakkou Houjin Kitasato Gakuen, priority 1999, dated 2002).)
